Experiments:
[1] = target: T1, human CaSR (Homo sapiens, UniProt P41180); experiment: FLIPR-based functional CaSR calcium assay in HCAR cells; format: cell-based; settings: 5 min incubation of HCAR cells, 0.1% BSA
T1 construct: host or cells: CCL39 hamster lung fibroblasts stably transfected (HCAR), Geneticin selection
T1 sequence (P41180 20-1078): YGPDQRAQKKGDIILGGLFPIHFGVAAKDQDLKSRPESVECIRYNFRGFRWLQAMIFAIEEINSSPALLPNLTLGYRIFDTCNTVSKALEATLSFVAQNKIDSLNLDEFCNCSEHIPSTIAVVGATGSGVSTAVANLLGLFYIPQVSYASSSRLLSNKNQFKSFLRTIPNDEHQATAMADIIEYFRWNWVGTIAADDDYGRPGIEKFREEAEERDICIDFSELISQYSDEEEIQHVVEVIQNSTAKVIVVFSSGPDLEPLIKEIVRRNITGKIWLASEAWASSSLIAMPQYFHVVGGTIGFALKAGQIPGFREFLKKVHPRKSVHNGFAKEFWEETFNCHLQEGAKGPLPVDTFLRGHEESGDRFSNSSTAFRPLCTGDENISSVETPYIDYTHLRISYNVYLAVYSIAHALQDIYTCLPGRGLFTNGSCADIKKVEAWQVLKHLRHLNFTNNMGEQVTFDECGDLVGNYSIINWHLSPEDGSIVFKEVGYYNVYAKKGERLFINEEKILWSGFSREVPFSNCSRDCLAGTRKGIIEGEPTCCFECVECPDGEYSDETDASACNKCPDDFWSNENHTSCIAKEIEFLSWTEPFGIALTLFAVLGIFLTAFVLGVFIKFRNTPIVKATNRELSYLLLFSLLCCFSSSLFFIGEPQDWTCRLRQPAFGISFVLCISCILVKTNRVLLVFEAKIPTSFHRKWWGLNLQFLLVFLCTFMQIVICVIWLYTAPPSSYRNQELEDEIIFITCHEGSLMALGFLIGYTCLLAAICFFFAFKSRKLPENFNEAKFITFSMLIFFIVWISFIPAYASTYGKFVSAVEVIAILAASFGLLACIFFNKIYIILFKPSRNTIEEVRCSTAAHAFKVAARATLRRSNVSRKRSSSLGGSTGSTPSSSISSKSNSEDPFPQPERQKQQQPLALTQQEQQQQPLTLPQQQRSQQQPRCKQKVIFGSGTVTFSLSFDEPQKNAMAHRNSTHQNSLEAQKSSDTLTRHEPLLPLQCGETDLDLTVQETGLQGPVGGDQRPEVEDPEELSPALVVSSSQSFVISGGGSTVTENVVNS

[2] = system: hair cells of the neuromasts within the lateral line organ; experiment: In vivo labeling of neuromasts in zebrafish larvae; design: species or system zebrafish (Danio rerio); settings: 4–6 dpf larvae; for fold increase in fluorescence intensity within the neuromasts: co-labeling with DiAsp; for normalized fluorescence of the neuromasts to the background fluorescence, mean and standard deviation: neuromasts identified with DiAsp
Method: (§1) For the neuromast labeling experiments, wild-type 4–6 days post fertilization (dpf) zebrafish larvae were incubated in 200 μL of E3 medium containing different doses of the SiR probes (500–5000 nM), 2.5 μM 4-(4-diethylaminostyryl)-1-methyl-pyridinium-iodid (DiAsp, Sigma, D3418), which specifically labels hair cells in the lateral line in 0.5% DMSO for 30 min (35). Next, washing and anesthesia were achieved by placing the larvae in a 35 mm imaging dish (MolBiTec, Imaging dish 1.5) which contained 500 μL of E3 medium with 168 mg/L MS-222 (Tricaine Mehanesulfonate, Sigma) for 10 min. After removing the solution, fish were side-embedded in the imaging dish using 500 μL of 0.75% low-melting temperature agarose (Sigma, A4018). Wide-field imaging was done using the Zeiss Axio Observer fluorescence microscope (LD A-Plan 10× objective, NA = 0.25), and confocal imaging was done using a Zeiss LSM 800 confocal fluorescence microscope (LD LCI Plan-Apochromat 25× objective, NA = 0.8).

[3] = Spectrofluorometric fluorescence in PBS and effect of pH; format: physicochemical; settings: 750 nM in PBS, peak fluorescence at 670
Method: Spectrofluorometric measurements were carried out by using the Agilent Cary Eclipse instrument. The voltage of the photomultiplier tube (PMT) was set to 600 for EvoSiR4 and EvoSiR6, and for 500 for SiR (4). Fluorescence of the probes was measured at concentrations ranging from 30 to 3000 nM in PBS containing various amounts of bovine serum albumin (BSA) (Sigma, A7906). Quenching experiments for the calculation of BSA binding were performed by adding a 1:1 molar ratio of tannic acid dissolved in ddH2O (Sigma, 403040) to the solution prior to measuring fluorescence.

[4] = system: zebrafish larvae; experiment: Zebrafish startle reflex, tolerability and brain penetration with bath-applied probe; format: in vivo, zebrafish (Danio rerio)
Method: as §1
For the behavioral analysis, wild-type 4–6 dpf zebrafish larvae were placed individually into custom-built sound delivery system described in a previous publication.[36] For acoustic stimulation, we used a 90 dB stimulus and recorded the subsequent behavioral responses using a high-speed camera (xiQ USB3 vision) at a frame rate of 500 fps using custom scripts written in Python. The camera was placed 30 cm above the sound delivery system. The latency of the startle reflex was quantified manually by using an LED flash (780 nm wavelength) in parallel with the time of stimulus delivery. Escape responses were quantified manually, where we considered a short-latency startle response between 2 and 16 ms and a long-latency startle response above 16 ms.

[5] = system: CYP2D6; design: method as in PMID 29724589; settings: cited from earlier work

Compound	EC50 ([1]; EC50, 1× wash, 1× wash) [nM]	EC50 ([1]; EC50, 3× wash, 3× wash) [nM]	EC50 ([1]; EC50, 5× wash, 5× wash) [nM]	EC50 ([1]; EC50, no wash, no wash) [nM]	fold increase in fluorescence intensity within the neuromasts [2] [fold]	normalized fluorescence of the neuromasts to the background fluorescence, mean and standard deviation [2]	decrease in fluorescence at pH above 10 [3] [%]	effect on startle responses (percentage elicited, ratio of short-latency escapes, latency) ([4]; bath-applied 5 and 10 μM, acoustic stimulation)	entry into zebrafish CNS ([4]; bath-applied, Tol056 strain, confocal microscopy)	concentration beyond which lethal ([4]; bath-applied, larvae) [µM]	concentration up to which no effect on basic locomotion capabilities ([4]; bath-applied, larvae)	CYP2D6 inhibition [5]
Cc1cc(C(=O)NCCCCNC(=O)Cc2ccc(N3CC[C@H](N[C@H](C)c4cccc5ccccc45)C3)cc2)ccc1C1=C2C=CC(=[N+](C)C)C=C2[Si](C)(C)c2cc(N(C)C)ccc21 [EvoSiR4]	380 ± 240	620 ± 310	330 ± 210	37 ± 8	5.7	5.71 ± 4.4	50	no significant difference	does not enter the zebrafish CNS	> 20	up to 10 μM	–
Cc1cc(C(=O)NCCCCCCNC(=O)Cc2ccc(N3CC[C@H](N[C@H](C)c4cccc5ccccc45)C3)cc2)ccc1C1=C2C=CC(=[N+](C)C)C=C2[Si](C)(C)c2cc(N(C)C)ccc21 [EvoSiR6]	–	–	–	–	5.6	5.6 ± 3.1	–	–	–	–	–	–
C[C@@H](N[C@H]1CCN(c2ccc(CC(=O)O)cc2)C1)c1cccc2ccccc12 [evocalcet]	–	–	–	–	–	–	–	–	–	–	–	no direct CYP2D6 inhibition
